# Measurements published in PubChem BioAssay AID2060905 (Molecular Pharmacology Branch, DTP, NCI, 2025).
# Test system: 282377-053-R-J1-PDC complex spheroid viability
# Assay: Anticancer human tumor 282377-053-R-J1-PDC patient-derived colon adenocarcinoma cell line growth inhibition [RAS]
# Details: for IC50: curve of first compound; for viability, T/C: stronger effect = lower value
# How it was run: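 Tumour cells grown as complex spheroids with HUVEC endothelial cells and mesenchymal stem cells, treated with RAS pathway inhibitor combinations. Each agent spans half-log steps from near clinical Cmax, or 10 microM where Cmax is unknown.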
# [1] = second compound 0.000949 µM, first compound 0.0316 µM
# [2] = second compound 0.000949 µM, first compound 0.1 µM
# [3] = second compound 0.000949 µM, first compound 0.316 µM
# [4] = second compound 0.000949 µM, first compound 1 µM
# [5] = second compound 0.000949 µM, first compound 3.16 µM
# [6] = second compound 0.000949 µM, first compound 10 µM
# [7] = second compound 0.003 µM, first compound 0.0316 µM
# [8] = second compound 0.003 µM, first compound 0.1 µM
# [9] = second compound 0.003 µM, first compound 0.316 µM
# [10] = second compound 0.003 µM, first compound 1 µM
# [11] = second compound 0.003 µM, first compound 3.16 µM
# [12] = second compound 0.003 µM, first compound 10 µM
# [13] = second compound 0.00949 µM, first compound 0.0316 µM
# [14] = second compound 0.00949 µM, first compound 0.1 µM
# [15] = second compound 0.00949 µM, first compound 0.316 µM
# [16] = second compound 0.00949 µM, first compound 1 µM
# [17] = second compound 0.00949 µM, first compound 3.16 µM
# [18] = second compound 0.00949 µM, first compound 10 µM
# [19] = second compound 0.03 µM, first compound 0.0316 µM
# [20] = second compound 0.03 µM, first compound 0.1 µM
# [21] = second compound 0.03 µM, first compound 0.316 µM
# [22] = second compound 0.03 µM, first compound 1 µM
# [23] = second compound 0.03 µM, first compound 3.16 µM
# [24] = second compound 0.03 µM, first compound 10 µM
# [25] = second compound 0.0949 µM, first compound 0.0316 µM
# [26] = second compound 0.0949 µM, first compound 0.1 µM
# [27] = second compound 0.0949 µM, first compound 0.316 µM
# [28] = second compound 0.0949 µM, first compound 1 µM
# [29] = second compound 0.0949 µM, first compound 3.16 µM
# [30] = second compound 0.0949 µM, first compound 10 µM
# [31] = second compound 0.3 µM, first compound 0.0316 µM
# [32] = second compound 0.3 µM, first compound 0.1 µM
# [33] = second compound 0.3 µM, first compound 0.316 µM
# [34] = second compound 0.3 µM, first compound 1 µM
# [35] = second compound 0.3 µM, first compound 3.16 µM
# [36] = second compound 0.3 µM, first compound 10 µM
# 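Also: spheroids exposed to agents for seven days before readout.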
# 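For viability, T/C in this document: luminescence viability as percent of DMSO vehicle control wells.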
compound,measurement,setting,value
CC(=O)OC12COC1CC(O)C1(C)C(=O)C(O)C3=C(C)C(OC(=O)C(O)C(NC(=O)OC(C)(C)C)c4ccccc4)CC(O)(C(OC(=O)c4ccccc4)C21)C3(C)C (stereo unspecified) + CCn1c(-c2cccnc2C(C)OC)c2c3cc(ccc31)N1CCOC(CC(NC(=O)C(C(C)C)N(C)C(=O)C3(F)CCN(C(=O)C#CC(C)(C)N(C)C)CC3)C(=O)N3CCCC(N3)C(=O)OCC(C)(C)C2)C1,IC50,second compound 0.000949 µM,< 31.6 nM
same,IC50,second compound 0.003 µM,< 31.6 nM
same,IC50,second compound 0.00949 µM,< 31.6 nM
same,IC50,second compound 0.03 µM,< 31.6 nM
same,IC50,second compound 0.0949 µM,< 31.6 nM
same,IC50,second compound 0.3 µM,> 10000 nM
same,"viability, T/C",[1],35%
same,"viability, T/C",[2],39.9%
same,"viability, T/C",[3],40.9%
same,"viability, T/C",[4],50.3%
same,"viability, T/C",[5],48.3%
same,"viability, T/C",[6],109%
same,"viability, T/C",[7],44.6%
same,"viability, T/C",[8],44.1%
same,"viability, T/C",[9],42.8%
same,"viability, T/C",[10],43.7%
same,"viability, T/C",[11],57.7%
same,"viability, T/C",[12],92%
same,"viability, T/C",[13],54.8%
same,"viability, T/C",[14],43.4%
same,"viability, T/C",[15],40.3%
same,"viability, T/C",[16],42.8%
same,"viability, T/C",[17],63.7%
same,"viability, T/C",[18],84.7%
same,"viability, T/C",[19],48.3%
same,"viability, T/C",[20],39.7%
same,"viability, T/C",[21],38.4%
same,"viability, T/C",[22],52.5%
same,"viability, T/C",[23],83.4%
same,"viability, T/C",[24],94.6%
same,"viability, T/C",[25],48.9%
same,"viability, T/C",[26],51.1%
same,"viability, T/C",[27],47.5%
same,"viability, T/C",[28],55.4%
same,"viability, T/C",[29],88%
same,"viability, T/C",[30],117%
same,"viability, T/C",[31],53.8%
same,"viability, T/C",[32],54.5%
same,"viability, T/C",[33],53.6%
same,"viability, T/C",[34],66.4%
same,"viability, T/C",[35],85.5%
same,"viability, T/C",[36],119%
NC1c2ccccc2OC12CCN(c1cnc3c(N4CCCc5ncccc54)n[nH]c3n1)CC2 (stereo unspecified) + CCn1c(-c2cccnc2C(C)OC)c2c3cc(ccc31)N1CCOC(CC(NC(=O)C(C(C)C)N(C)C(=O)C3(F)CCN(C(=O)C#CC(C)(C)N(C)C)CC3)C(=O)N3CCCC(N3)C(=O)OCC(C)(C)C2)C1,IC50,second compound 0.000949 µM,> 10000 nM
same,IC50,second compound 0.003 µM,> 10000 nM
same,IC50,second compound 0.00949 µM,> 10000 nM
same,IC50,second compound 0.03 µM,> 10000 nM
same,IC50,second compound 0.0949 µM,> 10000 nM
same,IC50,second compound 0.3 µM,> 10000 nM
same,"viability, T/C",[1],103%
same,"viability, T/C",[2],104%
same,"viability, T/C",[3],99.5%
same,"viability, T/C",[4],101%
same,"viability, T/C",[5],110%
same,"viability, T/C",[6],125%
same,"viability, T/C",[7],101%
same,"viability, T/C",[8],100%
same,"viability, T/C",[9],94.7%
same,"viability, T/C",[10],100%
same,"viability, T/C",[11],104%
same,"viability, T/C",[12],103%
same,"viability, T/C",[13],96.5%
same,"viability, T/C",[14],104%
same,"viability, T/C",[15],97.9%
same,"viability, T/C",[16],114%
same,"viability, T/C",[17],98.4%
same,"viability, T/C",[18],71.9%
same,"viability, T/C",[19],91.9%
same,"viability, T/C",[20],101%
same,"viability, T/C",[21],116%
same,"viability, T/C",[22],94.8%
same,"viability, T/C",[23],86%
same,"viability, T/C",[24],110%
same,"viability, T/C",[25],91.6%
same,"viability, T/C",[26],123%
same,"viability, T/C",[27],104%
same,"viability, T/C",[28],97.9%
same,"viability, T/C",[29],99%
same,"viability, T/C",[30],118%
same,"viability, T/C",[31],92.6%
same,"viability, T/C",[32],88.4%
same,"viability, T/C",[33],95.5%
same,"viability, T/C",[34],96.8%
same,"viability, T/C",[35],125%
same,"viability, T/C",[36],141%
Nc1ccn(C2OC(CO)C(O)C2(F)F)c(=O)n1 (stereo unspecified) + CCn1c(-c2cccnc2C(C)OC)c2c3cc(ccc31)N1CCOC(CC(NC(=O)C(C(C)C)N(C)C(=O)C3(F)CCN(C(=O)C#CC(C)(C)N(C)C)CC3)C(=O)N3CCCC(N3)C(=O)OCC(C)(C)C2)C1,IC50,second compound 0.000949 µM,> 1000 nM
same,IC50,second compound 0.003 µM,> 1000 nM
same,IC50,second compound 0.00949 µM,> 1000 nM
same,IC50,second compound 0.03 µM,> 1000 nM
same,IC50,second compound 0.0949 µM,> 1000 nM
same,IC50,second compound 0.3 µM,> 1000 nM
same,"viability, T/C","second compound 0.000949 µM, first compound 0.00316 µM",99.3%
same,"viability, T/C","second compound 0.000949 µM, first compound 0.01 µM",105%
same,"viability, T/C",[1],76%
same,"viability, T/C",[2],92.6%
same,"viability, T/C",[3],67.2%
same,"viability, T/C",[4],57.9%
same,"viability, T/C","second compound 0.003 µM, first compound 0.00316 µM",100%
same,"viability, T/C","second compound 0.003 µM, first compound 0.01 µM",97.9%
same,"viability, T/C",[7],99.2%
same,"viability, T/C",[8],109%
same,"viability, T/C",[9],81.1%
same,"viability, T/C",[10],59%
same,"viability, T/C","second compound 0.00949 µM, first compound 0.00316 µM",106%
same,"viability, T/C","second compound 0.00949 µM, first compound 0.01 µM",97.9%
same,"viability, T/C",[13],99.3%
same,"viability, T/C",[14],96.8%
same,"viability, T/C",[15],87.2%
same,"viability, T/C",[16],66.1%
same,"viability, T/C","second compound 0.03 µM, first compound 0.00316 µM",104%
same,"viability, T/C","second compound 0.03 µM, first compound 0.01 µM",87.7%
same,"viability, T/C",[19],112%
same,"viability, T/C",[20],104%
same,"viability, T/C",[21],103%
same,"viability, T/C",[22],74.1%
same,"viability, T/C","second compound 0.0949 µM, first compound 0.00316 µM",87%
same,"viability, T/C","second compound 0.0949 µM, first compound 0.01 µM",98.8%
same,"viability, T/C",[25],92.1%
same,"viability, T/C",[26],74.3%
same,"viability, T/C",[27],91.1%
same,"viability, T/C",[28],68.5%
same,"viability, T/C","second compound 0.3 µM, first compound 0.00316 µM",111%
same,"viability, T/C","second compound 0.3 µM, first compound 0.01 µM",99.9%
same,"viability, T/C",[31],92.8%
same,"viability, T/C",[32],116%
same,"viability, T/C",[33],90.9%
same,"viability, T/C",[34],52.9%
